This data set can be described thus: The equilibrium constant pair at a pH of 7.0 and temperature of 25 degree Centigrade. The conditions noted are these: pH 7.

In turn, `CN1C(=O)[C@]23CC4=CC=C[C@H](O)[C@H]4N2C(=O)[C@@]1(CO)SS3.N[C@@H](CS)C(=O)O` [GLIOTOXIN/CYSTEINE] returned a Keq of 400 M⁻¹.

The values above are taken from ChEMBL document CHEMBL1134188, “Evidence for gliotoxin-glutathione conjugate adducts” (Bioorg Med Chem Lett, 2001).
